Data taken from PMC12019328, “Discovery of an ApoE4-targeted small-molecule SirT1 enhancer for the treatment of Alzheimer’s disease” (Scientific Reports, 2025).

Legend:
SirT1 promoter = assay: ChIP analysis of SirT1 promoter occupancy in Kelly cells; type: cell-based, human; conditions: vs DMSO
Protocol: Correlations between gene mRNAs in DDL-214, -218, and -219-treated Kelly cells
As described in the main manuscript, human Kelly neuroblastoma cells were treated with
racemate DDL-214, and enantiomers DDL-218 and -219. Levels of PRMT5, NFYb, SirT1, and
PPP2r5e mRNAs were then determined. The correlations between these gene mRNAs for all
Data points are graphed by
treatment in Figure S6D-F and their significant correlation (Pearson correlation 0.914) in
bioinformatic analysis of gene co-expression of 2300 human brain RNAseq samples performed
at Genefriends.org (Raina, et al. (2022) GeneFriends: gene co-expression databases and tools
for humans and model organisms, Nucleic Acids Research, 2022;
Figure S6. Correlation of gene mRNA levels in DDL-treated Kelly cells. All data points are shown for (A)
PRMT5 vs. NFYb, (B) SirT1 vs. PRMT5, and (C) PPP2r5E vs. SirT1. R2 values are shown on the upper
right of each panel. (D-F) The same data with treatment (DDL-214, -218, or -219) indicated by symbols
shown below panel (E). The statistical 'r' value and significance determined by Pearsons Correlation
ChIP assay for SirT1 gene promoter occupancy by ApoE4 and RNA polymerase […]
promoter by ApoE4 or RNA Polymerase (RNAP) was determined using an EZ-ChIP kit (Millipore […]
DNA was purified. The immunoprecipitated DNA was measured for the level of immuno-captured […]

SirT1 mRNA = assay: Hippocampal SirT1 mRNA in ApoE4-TR:5xFAD mice; type: in vivo; conditions: 20 mg/Kg BID, 56 days, vs vehicle
Protocol: The active (-) enantiomer, DDL-218, underwent efficacy testing in ApoE4-TR:5xFAD mice[27] that were 6-7.5 months old at the start of treatment. ApoE4-TR:5xFAD male and female mice received either 20 mg/Kg DDL-218 BID (~ 8- to10-hour interval; total daily dose of 40 mkd) on weekdays and a single 40 mg/Kg dose on weekends (n = 12) or vehicle-only (n = 11); 8 C57BL/6 mice received vehicle-only as behavioral controls. Dosing was by the oral route and by oral feeding using a pipette as previously described, not gavage, as it is safer for repeated oral dosing than gavage. The dose of 20 mg/kg BID (40 mkd) was selected based on findings from PK analysis and was the highest feasible in the formulation used for oral feeding (compound is first solubilized in water, then mixed strawberry syrup diluted in water, for a final vehicle that is 25% syrup and 75% water). […]
Total RNA was isolated from cells or brain tissue (Qiagen RNEasy kit). Total RNA (0.5–1.0 µg) mRNA was then converted to cDNA (SuperScript™ III First-Strand Synthesis SuperMix kit; Thermo Fisher), and gene mRNA levels were measured using a gene-specific qRT-PCR Taqman assays (Thermo Fisher). Gene mRNA levels were normalized to GAPDH mRNA levels measured either in the same cDNA sample or in the same qPCR reaction using multiplexing of gene-of-interest/VIC and GAPDH/FAM, normalized by the delta-delta-Ct method.

CC(N)C(=O)OC(C)(C)Cc1ccncc1 (stereo not drawn) [DDL-218]
ApoE4 binding to SirT1 promoter (SirT1 promoter): lower, but the effect was not significant
RNAP occupancy of SirT1 promoter (SirT1 promoter): increased
hippocampal SirT1 mRNA (SirT1 mRNA): significantly increased
